# Measurements as given in patent US20050014789A1, “Amide derivatives as selective serotonin re-uptake inhibitors” (Pfizer Inc, priority 2003, published 2005).
# Columns and labels:
# Format in all cases: cell-based
# [1] = target: T1, dopamine transporter (hDAT) (Homo sapiens, UniProt Q01959); test: Inhibition of 3H-dopamine uptake in HEK-293 cells expressing hDAT
# T1 construct: expressed in transfected cells
# Experimental: (§1) Cells were harvested for the assay to yield a cell suspension of 750,000 cells/ml. […] Assays were carried out in 96-well filter bottom plates. […] All reactions were carried out at room temperature in a shaking incubator. Incubation times were 5 minutes for the hSERT and hDAT assays and 15 minutes for the hNET assay. Reactions were terminated by removal of the reaction mixture using a vacuum manifold followed by rapid washing with ice cold assay buffer. The quantity of ^3H-substrate incorporated into the cells was then quantified. Assay plates were dried in a microwave oven, scintillation fluid added, and radioactivity measured. […] Note: The pH of the buffer was adjusted to 7.40 with 1M NaOH before addition of CaCl2 and pargyline.
# [2] = target: T2, noradrenaline transporter (hNET) (Homo sapiens, UniProt P23975); test: Inhibition of 3H-noradrenaline uptake in HEK-293 cells expressing hNET
# T2 construct: expressed in transfected cells
# T2 sequence (P23975 whole entry): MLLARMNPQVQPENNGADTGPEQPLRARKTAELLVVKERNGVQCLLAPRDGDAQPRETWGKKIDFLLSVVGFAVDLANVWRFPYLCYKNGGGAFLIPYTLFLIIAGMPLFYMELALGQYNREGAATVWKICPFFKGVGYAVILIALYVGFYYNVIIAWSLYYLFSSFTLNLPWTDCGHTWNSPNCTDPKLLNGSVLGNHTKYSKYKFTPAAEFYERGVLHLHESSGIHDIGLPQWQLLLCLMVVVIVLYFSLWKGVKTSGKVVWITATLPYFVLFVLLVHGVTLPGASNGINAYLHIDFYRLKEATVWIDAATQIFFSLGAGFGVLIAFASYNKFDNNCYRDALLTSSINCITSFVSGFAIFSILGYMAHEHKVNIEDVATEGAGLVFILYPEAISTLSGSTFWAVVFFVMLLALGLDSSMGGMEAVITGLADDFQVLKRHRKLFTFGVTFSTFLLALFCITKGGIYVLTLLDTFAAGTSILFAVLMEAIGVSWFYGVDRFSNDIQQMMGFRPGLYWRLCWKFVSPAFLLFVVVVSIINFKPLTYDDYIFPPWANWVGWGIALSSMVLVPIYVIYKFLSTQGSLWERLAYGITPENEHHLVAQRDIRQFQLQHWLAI
# Experimental: Cells were harvested for the assay to yield a cell suspension of 750,000 cells/ml. All test compounds were dissolved in 100% DMSO and diluted down in assay buffer to give appropriate test concentrations. Assays were carried out in 96-well filter bottom plates. […] All reactions were carried out at room temperature in a shaking incubator. Incubation times were 5 minutes for the hSERT and hDAT assays and 15 minutes for the hNET assay. Reactions were terminated by removal of the reaction mixture using a vacuum manifold followed by rapid washing with ice cold assay buffer. The quantity of ^3H-substrate incorporated into the cells was then quantified. Assay plates were dried in a microwave oven, scintillation fluid added, and radioactivity measured. […] Note: The pH of the buffer was adjusted to 7.40 with 1M NaOH before addition of CaCl2 and pargyline. [table]
# [3] = target: T3, human serotonin transporter (hSERT) (Homo sapiens, UniProt P31645); test: Inhibition of 3H-serotonin uptake in HEK-293 cells expressing hSERT; conditions: HEK-293 hSERT cells, 3H-5HT 50 nM, 5 min incubation; read-out: serotonin re-uptake inhibition (SRI) IC50
# T3 construct: expressed in transfected cells
# T3 sequence (P31645 whole entry): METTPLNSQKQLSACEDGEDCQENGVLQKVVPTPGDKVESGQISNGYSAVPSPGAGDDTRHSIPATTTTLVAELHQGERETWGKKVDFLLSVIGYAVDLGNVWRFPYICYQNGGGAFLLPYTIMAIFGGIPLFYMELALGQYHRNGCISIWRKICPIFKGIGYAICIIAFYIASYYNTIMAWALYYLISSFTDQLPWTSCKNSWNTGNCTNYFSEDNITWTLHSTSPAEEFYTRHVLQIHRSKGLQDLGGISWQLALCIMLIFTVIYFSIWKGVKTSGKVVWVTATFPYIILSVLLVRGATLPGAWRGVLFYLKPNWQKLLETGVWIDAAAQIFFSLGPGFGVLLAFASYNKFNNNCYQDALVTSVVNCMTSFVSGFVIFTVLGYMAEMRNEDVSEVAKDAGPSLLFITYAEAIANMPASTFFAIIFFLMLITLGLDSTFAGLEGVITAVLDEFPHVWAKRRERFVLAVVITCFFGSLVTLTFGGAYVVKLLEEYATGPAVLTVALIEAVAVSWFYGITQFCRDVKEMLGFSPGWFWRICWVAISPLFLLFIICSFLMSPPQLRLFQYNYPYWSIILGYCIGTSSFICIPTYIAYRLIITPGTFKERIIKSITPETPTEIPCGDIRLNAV
# Experimental: as §1
# T1 sequence (Q01959 whole entry): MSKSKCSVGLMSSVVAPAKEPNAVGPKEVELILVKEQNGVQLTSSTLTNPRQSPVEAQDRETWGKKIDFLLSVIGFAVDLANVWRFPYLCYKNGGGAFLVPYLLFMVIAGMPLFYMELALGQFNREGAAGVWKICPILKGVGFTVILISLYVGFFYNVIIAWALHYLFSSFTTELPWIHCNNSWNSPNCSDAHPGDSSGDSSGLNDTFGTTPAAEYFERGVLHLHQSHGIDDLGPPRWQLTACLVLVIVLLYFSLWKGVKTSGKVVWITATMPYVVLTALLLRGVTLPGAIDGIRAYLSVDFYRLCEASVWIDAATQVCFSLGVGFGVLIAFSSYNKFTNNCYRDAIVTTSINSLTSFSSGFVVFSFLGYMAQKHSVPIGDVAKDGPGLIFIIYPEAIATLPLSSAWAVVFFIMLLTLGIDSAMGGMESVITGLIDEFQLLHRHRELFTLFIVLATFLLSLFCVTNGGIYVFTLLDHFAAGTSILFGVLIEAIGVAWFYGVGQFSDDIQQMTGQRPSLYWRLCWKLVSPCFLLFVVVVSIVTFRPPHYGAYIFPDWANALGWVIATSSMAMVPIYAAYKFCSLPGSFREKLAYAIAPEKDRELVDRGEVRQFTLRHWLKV
smiles,measurement,setting,value
"CC(C)CN(C(=O)c1ccc2ccccc2c1)[C@@H]1CCNC1.Cl [Example 23, N-Isobutyl-N-[(3R)-pyrrolidin-3-yl]-2-naphthamide hydrochloride]",IC50,"[1]; HEK-293 hDAT cells, 3H-Dopamine 200 nM, 5 min incubation, read-out: dopamine re-uptake inhibition IC50",9490 nM
same,fold more potent (serotonin re-uptake) over dopamine re-uptake,[1]; selectivity hSERT vs hDAT,2018 fold
same,IC50,"[2]; HEK-293 hNET cells, 3H-Noradrenaline 200 nM, 15 min incubation, read-out: noradrenaline re-uptake inhibition IC50",1230 nM
same,fold more potent (serotonin re-uptake) over noradrenaline re-uptake,[2]; selectivity hSERT vs hNET,261 fold
same,IC50,[3],4.7 nM
